Experiment [1] concerns the target T1, MTHFD1 recombinant human enzyme (Homo sapiens, UniProt P11586).
T1 sequence (P11586 2-291 limits assumed): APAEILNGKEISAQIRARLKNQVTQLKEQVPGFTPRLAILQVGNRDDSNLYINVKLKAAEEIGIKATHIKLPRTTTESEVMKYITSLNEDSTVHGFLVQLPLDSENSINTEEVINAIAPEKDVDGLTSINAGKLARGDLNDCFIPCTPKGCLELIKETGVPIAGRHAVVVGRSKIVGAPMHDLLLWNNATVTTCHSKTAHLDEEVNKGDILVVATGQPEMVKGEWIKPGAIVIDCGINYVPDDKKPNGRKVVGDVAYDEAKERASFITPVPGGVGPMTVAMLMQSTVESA
The experiment in a line: MTHFD1 inhibition assay (NAD(P)H-Glo luminescence). Conditions: MTHFD1 IC50, recombinant human enzyme 200 nM, NADP, band.

Experiment [2] deals with T2, MTHFD2 recombinant human enzyme (Homo sapiens, UniProt P13995).
T2 sequence (P13995 36-350): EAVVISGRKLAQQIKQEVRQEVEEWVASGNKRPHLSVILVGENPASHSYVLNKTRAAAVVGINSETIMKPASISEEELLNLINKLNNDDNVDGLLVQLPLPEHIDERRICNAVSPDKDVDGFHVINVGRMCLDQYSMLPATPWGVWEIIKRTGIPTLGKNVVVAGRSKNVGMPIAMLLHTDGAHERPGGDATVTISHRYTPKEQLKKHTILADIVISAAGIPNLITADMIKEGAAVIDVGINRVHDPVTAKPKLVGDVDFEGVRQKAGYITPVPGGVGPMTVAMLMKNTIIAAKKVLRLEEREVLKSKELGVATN
Put plainly: MTHFD2 inhibition assay (NAD(P)H-Glo luminescence). The settings on record: for MTHFD1/MTHFD2 IC50 ratio: selectivity of MTHFD2 inhibition over MTHFD1, band.

The structures appear in SMILES notation.

In general, IC50 refers to the concentration at which inhibition is half-maximal. As for `COC[C@H]1CN(c2cc(C)c3c4c(c(=O)oc3c2C)CN(C(=O)c2ccc(C(=O)NS(=O)(=O)N3CCCC3)c(OC3CCC(F)(F)CC3)c2)CC4)CCN1C` [Example 99, (R)-2-((4,4-difluorocyclohexyl)oxy)-4-(8-(3-(methoxymethyl)-4-methylpiperazin-1-yl)-7,10-dimethyl-5-oxo-1,3,4,5-tetrahydro-2H-chromeno[3,4-c]pyridine-3-carbonyl)-N-(pyrrolidin-1-ylsulfonyl)benzamide], the IC50 in experiment [1] was 10 to 100 nM. Moreover, in experiment [2], the IC50 fell in the range of 10 to 100 nM and the “MTHFD1/MTHFD2 IC50 ratio” value is listed as “F (<3)”.

For the compound `COC[C@H]1CN(c2cc(C)c3c4c(c(=O)oc3c2C)CN(C(=O)c2ccc(C(=O)NS(=O)(=O)N(C)C)c(OC3C5CC6CC(C5)CC3C6)c2)CC4)CCN1C` (stereo partly drawn) [Example 100, 2-((adamantan-2-yl)oxy)-N-(N,N-dimethylsulfamoyl)-4-(8-((R)-3-(methoxymethyl)-4-methylpiperazin-1-yl)-7,10-dimethyl-5-oxo-1,3,4,5-tetrahydro-2H-chromeno[3,4-c]pyridine-3-carbonyl)benzamide], the IC50 in experiment [1] was in the range of 10 to 100 nM. In experiment [2], the IC50 lay within 10 to 100 nM and the “MTHFD1/MTHFD2 IC50 ratio” value was “F (<3)”.

With `COC[C@H]1CN(c2ccc3c4c(c(=O)oc3c2C)CN(C(=O)c2cc(OC3CCCC3)c(C(=O)NS(=O)(=O)C3(C)CC3)c(C(F)(F)F)c2)CC4)CCN1C` [Example 101, (R)-2-(cyclopentyloxy)-4-(8-(3-(methoxymethyl)-4-methylpiperazin-1-yl)-7-methyl-5-oxo-1,3,4,5-tetrahydro-2H-chromeno[3,4-c]pyridine-3-carbonyl)-N-((1-methylcyclopropyl)sulfonyl)-6-(trifluoromethyl)benzamide], the IC50 in experiment [1] lay within 1000 to 5000 nM; in experiment [2], 100 to 1000 nM. Besides, the “MTHFD1/MTHFD2 IC50 ratio” value in experiment [2] was “H (>9.0 to 30)”.

For `COC[C@H]1CN(c2cc(C)c3c4c(c(=O)oc3c2C)CN(C(=O)c2ccc(C(=O)NS(=O)(=O)N(C)C)c(N3CCC[C@H]3C)c2)CC4)CCN1C` [Example 102, N-(N,N-dimethylsulfamoyl)-4-(8-((R)-3-(methoxymethyl)-4-methylpiperazin-1-yl)-7,10-dimethyl-5-oxo-1,3,4,5-tetrahydro-2H-chromeno[3,4-c]pyridine-3-carbonyl)-2-((R)-2-methylpyrrolidin-1-yl)benzamide], the IC50 in experiment [1] and in experiment [2] was 10 to 100 nM throughout. The “MTHFD1/MTHFD2 IC50 ratio” value in experiment [2] is “F (<3)”.

With `COC[C@H]1CN(c2cc(C)c3c4c(c(=O)oc3c2C)CN(C(=O)c2ccc(C(=O)NS(=O)(=O)N(C)C)c(N3CCC[C@@H]3C)c2)CC4)CCN1C` [Example 103, N-(N,N-dimethylsulfamoyl)-4-(8-((R)-3-(methoxymethyl)-4-methylpiperazin-1-yl)-7,10-dimethyl-5-oxo-1,3,4,5-tetrahydro-2H-chromeno[3,4-c]pyridine-3-carbonyl)-2-((S)-2-methylpyrrolidin-1-yl)benzamide], the 50% inhibitory concentration (IC50) in experiment [1] lay within 1 to 10 nM. Also, in experiment [2], the IC50 was in the range of 1 to 10 nM and the “MTHFD1/MTHFD2 IC50 ratio” value is “G (^ 3 to 9.0)”.

On to `COC[C@H]1CN(c2ccc3c4c(c(=O)oc3c2C)CN(C(=O)c2cc(N3CC5CC5C3)c(C(=O)NS(=O)(=O)C3(C)CC3)c(C(F)(F)F)c2)CC4)CCN1C` (stereo partly drawn) [Example 104, 2-(3-azabicyclo[3.1.0]hexan-3-yl)-4-(8-((R)-3-(methoxymethyl)-4-methylpiperazin-1-yl)-7-methyl-5-oxo-1,3,4,5-tetrahydro-2H-chromeno[3,4-c]pyridine-3-carbonyl)-N-((1-methylcyclopropyl)sulfonyl)-6-(trifluoromethyl)benzamide], for which the IC50 in experiment [1] was over 5000 nM. In experiment [2], the IC50 lay within 100 to 1000 nM and the “MTHFD1/MTHFD2 IC50 ratio” value is “H (>9.0 to 30)”.

Turning to `COC[C@H]1CN(c2ccc3c4c(c(=O)oc3c2C)CN(C(=O)c2cc(Cl)c(C(=O)NS(=O)(=O)N3CCCC3)c(N3CC5CC5C3)c2)CC4)CCN1C` (stereo partly drawn) [Example 105, 2-(3-azabicyclo[3.1.0]hexan-3-yl)-6-chloro-4-(8-((R)-3-(methoxymethyl)-4-methylpiperazin-1-yl)-7-methyl-5-oxo-1,3,4,5-tetrahydro-2H-chromeno[3,4-c]pyridine-3-carbonyl)-N-(pyrrolidin-1-ylsulfonyl)benzamide], the IC50 in experiment [1] lay in the range of 100 to 1000 nM. In experiment [2], the IC50 fell in the range of 100 to 1000 nM and the “MTHFD1/MTHFD2 IC50 ratio” value is listed as “G (^ 3 to 9.0)”.

In the case of `COC[C@H]1CN(c2cc(C)c3c4c(c(=O)oc3c2C)CN(C(=O)c2cc(C)c(C(=O)NS(=O)(=O)N(C)C)c(N3CCCC3)c2)CC4)CCN1C` [Example 106, (R)-N-(N,N-dimethylsulfamoyl)-4-(8-(3-(methoxymethyl)-4-methylpiperazin-1-yl)-7,10-dimethyl-5-oxo-1,3,4,5-tetrahydro-2H-chromeno[3,4-c]pyridine-3-carbonyl)-2-methyl-6-(pyrrolidin-1-yl)benzamide], the IC50 is 100 to 1000 nM in experiment [1] and 10 to 100 nM in experiment [2]. In addition, the “MTHFD1/MTHFD2 IC50 ratio” value in experiment [2] was “H (>9.0 to 30)”.

Take `COC[C@H]1CN(c2ccc3c4c(c(=O)oc3c2C)CN(C(=O)c2cc(OC3CCCC3)c(C(=O)NS(=O)(=O)N3CCCC3)c(C(F)(F)F)c2)CC4)CCN1C` [Example 107, (R)-2-(cyclopentyloxy)-4-(8-(3-(methoxymethyl)-4-methylpiperazin-1-yl)-7-methyl-5-oxo-1,3,4,5-tetrahydro-2H-chromeno[3,4-c]pyridine-3-carbonyl)-N-(pyrrolidin-1-ylsulfonyl)-6-(trifluoromethyl)benzamide]: in experiment [1], the IC50 was 1000 to 5000 nM. Also, in experiment [2], the IC50 fell in the range of 100 to 1000 nM and the “MTHFD1/MTHFD2 IC50 ratio” value is listed as “G (^ 3 to 9.0)”.

As to `COC[C@H]1CN(c2cc(C)c3c4c(c(=O)oc3c2C)CN(C(=O)c2cc(OC3CCCC3)c(C(=O)NS(=O)(=O)N(C)C)cc2F)CC4)CCN1C` [Example 110, (R)-2-(cyclopentyloxy)-N-(N,N-dimethylsulfamoyl)-5-fluoro-4-(8-(3-(methoxymethyl)-4-methylpiperazin-1-yl)-7,10-dimethyl-5-oxo-1,3,4,5-tetrahydro-2H-chromeno[3,4-c]pyridine-3-carbonyl)benzamide], the IC50 in experiment [1] and in experiment [2] was 10 to 100 nM each time. For the same compound, the “MTHFD1/MTHFD2 IC50 ratio” value in experiment [2] was “F (<3)”.

In the case of `COC[C@H]1CN(c2cc(C)c3c4c(c(=O)oc3c2C)CN(C(=O)c2cc(OC3CCCC3)c(C(=O)NS(=O)(=O)N3CCCC3)cc2F)CC4)CCN1C` [Example 111, (R)-2-(cyclopentyloxy)-5-fluoro-4-(8-(3-(methoxymethyl)-4-methylpiperazin-1-yl)-7,10-dimethyl-5-oxo-1,3,4,5-tetrahydro-2H-chromeno[3,4-c]pyridine-3-carbonyl)-N-(pyrrolidin-1-ylsulfonyl)benzamide], the IC50 in experiment [1] and in experiment [2] was 10 to 100 nM each time. The “MTHFD1/MTHFD2 IC50 ratio” value in experiment [2] is reported as “F (<3)”.

Regarding `COC[C@H]1CN(c2ccc3c4c(c(=O)oc3c2C)CN(C(=O)c2cc(N3CC5CC5C3)c(C(=O)NS(=O)(=O)N3CCCC3)c(C(F)(F)F)c2)CC4)CCN1C` (stereo partly drawn) [Example 112, 2-(3-azabicyclo[3.1.0]hexan-3-yl)-4-(8-((R)-3-(methoxymethyl)-4-methylpiperazin-1-yl)-7-methyl-5-oxo-1,3,4,5-tetrahydro-2H-chromeno[3,4-c]pyridine-3-carbonyl)-N-(pyrrolidin-1-ylsulfonyl)-6-(trifluoromethyl)benzamide], in experiment [1], the IC50 was over 5000 nM. For the same compound, in experiment [2], the half-inhibitory concentration (IC50) lay within 100 to 1000 nM and the “MTHFD1/MTHFD2 IC50 ratio” value was “G (^ 3 to 9.0)”.

In the case of `COC[C@H]1CN(c2cc(C)c3c4c(c(=O)oc3c2C)CN(C(=O)c2ccc(C(=O)NS(=O)(=O)N3CCCC3)c(N3CC5CCC3C5)c2)CC4)CCN1C` (stereo partly drawn) [Example 115, 2-(2-azabicyclo[2.2.1]heptan-2-yl)-4-(8-((R)-3-(methoxymethyl)-4-methylpiperazin-1-yl)-7,10-dimethyl-5-oxo-1,3,4,5-tetrahydro-2H-chromeno[3,4-c]pyridine-3-carbonyl)-N-(pyrrolidin-1-ylsulfonyl)benzamide], the IC50 in experiment [1] was 10 to 100 nM. Moreover, in experiment [2], the IC50 was in the range of 10 to 100 nM and the “MTHFD1/MTHFD2 IC50 ratio” value is on record as “F (<3)”.

Turning to `COC[C@H]1CN(c2cc(C)c3c4c(c(=O)oc3c2C)CN(C(=O)c2ccc(C(=O)NS(=O)(=O)N(C)C)c(N3CC5CCC3C5)c2)CC4)CCN1C` (stereo partly drawn) [Example 116, 2-(2-azabicyclo[2.2.1]heptan-2-yl)-N-(N,N-dimethylsulfamoyl)-4-(8-((R)-3-(methoxymethyl)-4-methylpiperazin-1-yl)-7,10-dimethyl-5-oxo-1,3,4,5-tetrahydro-2H-chromeno[3,4-c]pyridine-3-carbonyl)benzamide], the values for the IC50 in experiment [1] and in experiment [2] were 1 to 10 nM and 10 to 100 nM, respectively. In experiment [2], the “MTHFD1/MTHFD2 IC50 ratio” value was “F (<3)”.

Take `COC[C@H]1CN(c2ccc3c4c(c(=O)oc3c2C)CN(C(=O)c2cc(OC3CCCC3)c(C(=O)NS(=O)(=O)N(C)C)c(C(F)(F)F)c2)CC4)CCN1C` [Example 117, (R)-2-(cyclopentyloxy)-N-(N,N-dimethylsulfamoyl)-4-(8-(3-(methoxymethyl)-4-methylpiperazin-1-yl)-7-methyl-5-oxo-1,3,4,5-tetrahydro-2H-chromeno[3,4-c]pyridine-3-carbonyl)-6-(trifluoromethyl)benzamide]: the IC50 in experiment [1] was 1000 to 5000 nM. In experiment [2], the IC50 lay within 100 to 1000 nM and the “MTHFD1/MTHFD2 IC50 ratio” value was “H (>9.0 to 30)”.

Values taken from US12662489B2 (Sitryx Therapeutics Limited, priority 2023, dated 2026).
